Values of other authors as cited in patent US4707498A, “Fluorinated diaminoalkyne derivatives” (Merrell Dow Pharmaceuticals Inc., priority 1986, dated 1987).

Test system: tumor
Settings: MGBG intravenously once or twice week

## CC(C=NNC(=N)N)=NNC(=N)N [MGBG, methylglyoxal bis(guanylhydrazone)]
65 treated patients
  complete disappearance of the disease (number of treated patients): two of the 65
Patients in advanced stages of carcinoma, lymphoma, hepatoma, melanoma, leukemia or sarcoma
  regression of the tumor: measurable regression of the tumor in many of the patients treated
